Experimental data: BigSolDB 2.1

CNC(=O)c1cc(Oc2ccc(N)cc2)ccn1
solubility (mole fraction)
Conditions	in THF	in acetonitrile	in ethanol	in ethyl acetate	in methanol	in n-butanol	in n-propanol
278.15 K	0.0898	0.0273	0.00539	0.0528	0.00809	0.00322	0.00451
283.15 K	0.0978	0.0317	0.00707	0.0637	0.0117	0.0044	0.00593
288.15 K	0.108	0.0394	0.00914	0.0773	0.0158	0.00563	0.00778
293.15 K	0.118	0.0491	0.0136	0.0919	0.0203	0.00781	0.0111
298.15 K	0.129	0.0595	0.0179	0.11	0.0276	0.00986	0.0135
303.15 K	0.143	0.0737	0.0249	0.129	0.0369	0.0132	0.0181
308.15 K	0.158	0.0897	0.0331	0.151	0.0488	0.0171	0.0237
313.15 K	0.173	0.109	0.044	0.179	0.0634	0.0222	0.0308
318.15 K	0.192	0.133	0.0587	0.207	0.082	0.0287	0.0396
323.15 K	0.211	0.161	0.0764	0.238	0.105	0.0366	0.0503
328.15 K	0.233	0.195	0.0999	0.28	0.134	0.0466	0.0638
